Laboratory results from PMC12027149 (International Journal of Molecular Sciences, 2025).
Several values for one entry are separate records, joined by “and”; a condition that tells them apart may be missing. Equal entries are not always repeated. Where two headings read alike, the source gives them in different places.

Tests used:
[1] = MTT cytotoxicity assay on differentiated SH-SY5Y cells; type: cell-based, human; conditions: human, 0.05–5 mM; for CC50 at 24 h: differentiated SH-SY5Y, MTT reduction assay, Hill fit, read-out: LC50
Description: (§1) The SH–SY5Y cell line (DSMZ code: ACC 209) was supplied by the German Collection of Microorganisms and the Cell Culture GmbH (DSMZ) biobank and was cultured according to the supplier’s information. Cells were grown in DMEM:F12 (Dulbecco’s Modified Eagle’s Medium/F12), supplemented with 10% fetal bovine serum (FBS) and 1% antibiotic–antimycotic in a humidified atmosphere with 5% CO2 at 37 °C. Subculture was performed according to biobank instructions when the cultures reached 80–85% of confluence.
(§2) SH-SY5Y cells were trypsinized (trypsin/EDTA; 0.25%) and the cell suspension was seeded in 96-well plates at a density of 2 × 10^4 cells/well and incubated until reaching 80-85% confluence. Cells were differentiated to obtain a dopaminergic neuronal phenotype according to Ferreira et al. with slight modifications (Figure 10). To ensure reproducibility and optimal neuronal differentiation, cells were used between passages (15–25). Briefly, cells were seeded in complete DMEM:F12 medium containing 10 µM retinoic acid (RA) and 2.5% fetal bovine serum (FBS) and maintained for 4 days, with the medium changed on day 2. After this time, the medium was replaced by DMEM:F12 supplemented with 10 µM RA, 80 nM 12-O-tetradecanoylphorbol-13-acetate (TPA), and 2.5% FBS, and the cells were maintained for an additional 4 days (with the medium changed at day 6). The cytotoxicity assay was performed on day 8.
(§3) The SH-SY5Y cells’ viability was evaluated after exposure for 24 h to […]. The 3-(4,5-dimethylthiazol-2-yl) − 2,5-diphenyltetrazolium bromide (MTT) colorimetric assay was performed following the methodology described by Joana Silva et al.. The experimental dose–response results were fitted to the Hill’s sigmoidal non-linear regression model. For each cathinone, the LC50 values (cathinone concentration showing 50% lethality) and their confidence interval at the 95% confidence level ([CI]) were determined. The Hill slope, also known as the Hill coefficient, which describes the steepness of a dose–response curve, and the minimum observable adverse effect concentration (LOAEL) were also determined for all cathinones.

[2] = system: differentiated SH-SY5Y cells; assay: as above; type: cell-based, human; conditions: lowest observed adverse effect level, differentiated SH-SY5Y, 24 h, MTT
Description: as §1, §2, §3

[3] = target: T1, Acetylcholinesterase (AChE, EC 3.1.1.7) (Electrophorus electricus, UniProt O42275); assay: Acetylcholinesterase inhibition, modified Ellman colorimetric method; type: biochemical; conditions: for Hillslope: AChE inhibition dose–response curve; for LOAEL / IC50: Ellman assay; for IC50: 0.03–2 mM, Hill fit; for maximum inhibition of AChE among the tested concentrations: 0.03 to 2 mM
T1 construct: purchased Sigma-Aldrich
Description: Acetylcholinesterase (AChE, EC 3.1.1.7) enzymatic activity was assessed using a modified version of Ellman’s colorimetric method, as described by Falé et al.. In this assay, a mixture of 325 μL of 50 mM Tris-HCl buffer (pH 8), 100 μL of a cathinone solution, and 25 μL of AChE (0.1 U/mL in 50 mM Tris–HCl buffer pH 8) were incubated. After a 15 min incubation period, 75 μL of AChI (0.33 mg/mL) was added to 475 μL of DTNB (dithiobis (2-nitrobenzoic acid)) (1.2 mg/mL in Tris–HCl buffer (pH 8) containing 0.1 M NaCl and 0.02 M MgCl2). A control reaction, representing 100% activity, was performed using the same volume of water instead of the cathinone solution. The initial velocity of the enzymatic reaction was measured at 405 nm for 5 min, with all assays carried out in duplicate. The percentage of AChE activity inhibition for different concentrations of cathinones [0.03–2 mM] was determined as the ratio of the initial velocity in the cathinone presence to the initial velocity of the control reaction. Experimental results were fitted to Hill’s sigmoidal dose–response non-linear regression model to determine IC50 values (cathinone concentration showing 50% inhibition), along with their confidence interval at the 95% confidence level ([CI]). The Hill slope coefficients that provide the steepest value of the slope of the dose–response curve and the minimum observable adverse effect concentration (LOAEL) for all cathinones were also determined.

SH-SY5Y cells = assay: Mitochondrial membrane potential (JC-1 probe); type: cell-based, human; conditions: 6 h treatment at LC50, JC-1
Description: Mitochondrial membrane potential (MMP) was estimated by using the JC-1 fluorescent probe (Molecular Probes, Eugene, OR, USA) as described in Silva et al., 2022 [65]. The formation of JC-1 aggregates (excitation λ: 490 nm; emission λ: 590 nm) and monomers (excitation λ: 490 nm; emission λ: 530 nm) was measured for 30 min using a plate reader (Bio-Tek Synergy plate reader, Bedfordshire, UK). Changes in MMP were calculated as the ratio between JC-1 monomers and aggregates and expressed as a percentage of the control. An FCCP (2.5 µM) and oligomycin A (1 mg/mL) conjugate solution was used as the positive control. All data were obtained from at least three independent experiments (n = 3) and were presented as mean ± standard error of the mean (SEM).

T1 sequence (O42275 24-633): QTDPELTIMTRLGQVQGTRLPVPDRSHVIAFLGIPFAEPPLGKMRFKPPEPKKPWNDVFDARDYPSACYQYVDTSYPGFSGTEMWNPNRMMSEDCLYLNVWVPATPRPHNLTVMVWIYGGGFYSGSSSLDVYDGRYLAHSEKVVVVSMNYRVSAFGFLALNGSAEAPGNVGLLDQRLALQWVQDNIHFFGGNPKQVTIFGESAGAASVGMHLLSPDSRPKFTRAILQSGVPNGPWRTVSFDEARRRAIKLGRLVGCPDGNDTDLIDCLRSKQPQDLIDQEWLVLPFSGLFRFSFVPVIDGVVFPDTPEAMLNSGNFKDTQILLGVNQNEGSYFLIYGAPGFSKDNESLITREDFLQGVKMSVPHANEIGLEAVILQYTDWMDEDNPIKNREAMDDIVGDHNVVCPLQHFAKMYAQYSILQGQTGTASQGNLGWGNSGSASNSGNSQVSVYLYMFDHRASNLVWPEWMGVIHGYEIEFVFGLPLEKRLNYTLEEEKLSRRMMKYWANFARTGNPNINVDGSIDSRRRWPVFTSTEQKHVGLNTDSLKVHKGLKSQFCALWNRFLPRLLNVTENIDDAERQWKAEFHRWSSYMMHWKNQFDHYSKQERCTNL

## CNC(C)C(=O)c1ccccc1Cl (racemic) [2-CMC (1), (R,S)-1-(2-chlorophenyl)-2-(methylamino)propan-1-one]
[1]
  CC50 at 24 h: 1700 µM
[2]
  LOAEL: 1 mM and 1.0 mM
[3]
  Hillslope: 2.5
[3]; AChE inhibition
  LOAEL: 0.250 mM
[3]; IC50, AChE inhibition
  IC50: 700 µM

## CC(C(=O)c1ccc(Cl)cc1)N(C)C (racemic) [4-CDC (14), (R,S)-1-(4-chlorophenyl)-2-(dimethylamino)propan-1-one]
[1]
  CC50 at 24 h: 1500 µM
[2]
  LOAEL: 1 mM and 1.0 mM
[3]
  Hillslope: 2.9
[3]; AChE inhibition
  LOAEL: 0.500 mM and 0.50 mM
[3]; IC50, AChE inhibition
  IC50: 700 µM

## CNC(C)C(=O)c1cccc(Cl)c1 (racemic) [3-CMC (2), (R,S)-1-(3-chlorophenyl)-2-(methylamino)propan-1-one]
[1]
  CC50 at 24 h: 2300 µM
[2]
  LOAEL: 1 mM and 1.0 mM
[3]
  Hillslope: 3.7
[3]; AChE inhibition
  LOAEL: 0.500 mM
[3]; IC50, AChE inhibition
  IC50: 800 µM

## CC(C(=O)c1ccccc1Cl)N1CCCC1 (racemic) [2-Cl-PPP (9), (R,S)-1-(2-chlorophenyl)-2-(pyrrolidine-1-yl)propan-1-one]
[1]
  CC50 at 24 h: 1600 µM
[2]
  LOAEL: 0.5 mM
[3]
  maximum inhibition of AChE among the tested concentrations: 81%
  Hillslope: 1.5
[3]; AChE inhibition
  LOAEL: 0.125 mM
[3]; IC50, AChE inhibition
  IC50: 300 µM

## CCCCNC(C)C(=O)c1ccc(Cl)cc1 (racemic) [4-CBC (8), (R,S)-2-(butylamino)-1-(4-chlorophenyl)propan-1-one]
[1]
  CC50 at 24 h: 600 µM
[2]
  LOAEL: 0.5 mM
[3]
  Hillslope: 5.1
[3]; AChE inhibition
  LOAEL: 0.100 mM
[3]; IC50, AChE inhibition
  IC50: 1300 µM
SH-SY5Y cells
  MMP depolarization: more pronounced MMP depolarization than the other cathinones

## CC(C(=O)c1cccc(Cl)c1)N1CCCC1 (racemic) [3-Cl-PPP (10), (R,S)-1-(3-chlorophenyl)-2-(pyrrolidine-1-yl)propan-1-one]
[1]
  CC50 at 24 h: 2500 µM
[2]
  LOAEL: 0.1 mM
[3]
  Hillslope: 1.8
[3]; AChE inhibition
  LOAEL: 0.125 mM
[3]; IC50, AChE inhibition
  IC50: 400 µM

## CCNC(C)C(=O)c1cccc(Cl)c1 (racemic) [3-CEC (5), (R,S)-1-(3-chlorophenyl)-2-(ethylamino)propan-1-one]
[1]
  CC50 at 24 h: 1300 µM
[2]
  LOAEL: 0.5 mM
[3]
  Hillslope: 1.3
[3]; AChE inhibition
  LOAEL: 0.250 mM
[3]; IC50, AChE inhibition
  IC50: 800 µM

## CC(C(=O)c1ccc(Cl)cc1)N1CCCC1 (racemic) [4-Cl-PPP (11), (R,S)-1-(4-chlorophenyl)-2-(pyrrolidine-1-yl)propan-1-one]
[1]
  CC50 at 24 h: 1800 µM
[2]
  LOAEL: 0.5 mM
[3]
  Hillslope: 1.1
[3]; AChE inhibition
  LOAEL: 0.250 mM
[3]; IC50, AChE inhibition
  IC50: 500 µM

## CC(C)NC(C)C(=O)c1ccc(Cl)cc1 (racemic) [4-CIC (18), (R,S)-1-(4-chlorophenyl)-2-(isopropylamino)propan-1-one]
[1]
  CC50 at 24 h: 1400 µM
[2]
  LOAEL: 1 mM and 1.0 mM
[3]
  Hillslope: 2.0
[3]; AChE inhibition
  LOAEL: 0.375 mM
[3]; IC50, AChE inhibition
  IC50: 1100 µM

## CCN(CC)C(C)C(=O)c1ccc(Cl)cc1 (racemic) [4-Cl-DEC (16), (R,S)-1-(4-chlorophenyl)-2-(diethylamino)propan-1-one]
[1]
  CC50 at 24 h: 1000 µM
[2]
  LOAEL: 1 mM and 1.0 mM
[3]
  Hillslope: 0.8
[3]; AChE inhibition
  LOAEL: 0.063 mM
[3]; IC50, AChE inhibition
  IC50: 100 µM

## CC(C)NC(C)C(=O)c1cccc(Cl)c1 (racemic) [3-CIC (17), (R,S)-1-(3-chlorophenyl)-2-(isopropylamino)propan-1-one]
[1]
  CC50 at 24 h: 1600 µM
[2]
  LOAEL: 1 mM and 1.0 mM
[3]
  Hillslope: 0.8
[3]; AChE inhibition
  LOAEL: 0.063 mM
[3]; IC50, AChE inhibition
  IC50: 200 µM

## CC(C(=O)c1cccc(Cl)c1)N(C)C (racemic) [3-CDC (13), (R,S)-1-(3-chlorophenyl)-2-(dimethylamino)propan-1-one]
[1]
  CC50 at 24 h: 1800 µM
[2]
  LOAEL: 1 mM and 1.0 mM
[3]
  Hillslope: 1.2
[3]; AChE inhibition
  LOAEL: 0.250 mM
[3]; IC50, AChE inhibition
  IC50: 900 µM

## CC(C(=O)c1ccccc1Cl)N(C)C (racemic) [2-CDC (12), (R,S)-1-(2-chlorophenyl)-2-(dimethylamino)propan-1-one]
[1]
  CC50 at 24 h: 1300 µM
[2]
  LOAEL: 1 mM and 1.0 mM
[3]
  Hillslope: 2.5
[3]; AChE inhibition
  LOAEL: 0.250 mM
[3]; IC50, AChE inhibition
  IC50: 700 µM

## CCNC(C)C(=O)c1ccc(Cl)cc1 (racemic) [4-CEC (6), (R,S)-1-(4-chlorophenyl)-2-(ethylamino)propan-1-one]
[1]
  CC50 at 24 h: 1300 µM
[2]
  LOAEL: 0.1 mM
[3]
  Hillslope: 1.2
[3]; AChE inhibition
  LOAEL: 0.250 mM
[3]; IC50, AChE inhibition
  IC50: 1200 µM

## CC(NC(C)(C)C)C(=O)c1cccc(Cl)c1 (racemic) [3-Cl-TBC (19), (R,S)-2-(tert-butylamino)-1-(3-chlorophenyl)propan-1-one]
[1]
  CC50 at 24 h: 1000 µM
[2]
  LOAEL: 0.5 mM
[3]
  Hillslope: 0.9
[3]; AChE inhibition, read-out: IC50
  IC50: 1000 µM
[3]; AChE inhibition
  LOAEL: 0.250 mM

## CCCCNC(C)C(=O)c1cccc(Cl)c1 (racemic) [3-CBC (7), (R,S)-2-(butylamino)-1-(3-chlorophenyl)propan-1-one]
[1]
  CC50 at 24 h: 700 µM
[2]
  LOAEL: 0.1 mM
[3]
  Hillslope: 1.4
[3]; AChE inhibition
  LOAEL: 0.125 mM
[3]; IC50, AChE inhibition
  IC50: 400 µM
SH-SY5Y cells
  MMP depolarization: more pronounced MMP depolarization than the other cathinones

## CNC(C)C(=O)c1ccc(C)cc1 (centres unmarked) [Mephedrone (M), Mephedrone, reference compound]
[1]; MTT, read-out: maximum response (cytotoxicity)
  Emax at 24 h: 73%
[1]
  CC50 at 24 h: 2100 µM
[2]
  LOAEL: 0.5 mM
[3]
  Hillslope: 8.6
[3]; AChE inhibition
  LOAEL: 0.750 mM
[3]; IC50, AChE inhibition
  IC50: 800 µM

## CCNC(C)C(=O)c1ccccc1Cl (racemic) [2-CEC (4), (R,S)-1-(2-chlorophenyl)-2-(ethylamino)propan-1-one]
[1]
  CC50 at 24 h: 1600 µM
[2]
  LOAEL: 0.5 mM
[3]
  maximum inhibition of AChE among the tested concentrations: 85%
  Hillslope: 4.3
[3]; AChE inhibition
  LOAEL: 0.500 mM
[3]; IC50, AChE inhibition
  IC50: 600 µM

## CNC(C)C(=O)c1ccc(Cl)cc1 (racemic) [4-CMC (3), (R,S)-1-(4-chlorophenyl)-2-(methylamino)propan-1-one]
[1]
  CC50 at 24 h: 1300 µM
[2]
  LOAEL: 0.1 mM
[3]
  Hillslope: 1.5
[3]; AChE inhibition
  LOAEL: 0.250 mM
[3]; IC50, AChE inhibition
  IC50: ~2000 µM
[3]; highest tested concentration of 2 mM
  inhibition at 2000 µM: 47%
